Data on 3 compounds can be found in patent publication US6750232B2, “2-aminopyridine compounds and use thereof as drugs” (Eisai Co., Ltd., priority 2000, dated 2004).

Assay [1] deals with T1, human adenosine A1 receptor (Homo sapiens, UniProt P30542).
T1 construct: expressed in transfected cells; host or cells: CHOK1 cells (membrane sample)
T1 sequence (P30542 1-326): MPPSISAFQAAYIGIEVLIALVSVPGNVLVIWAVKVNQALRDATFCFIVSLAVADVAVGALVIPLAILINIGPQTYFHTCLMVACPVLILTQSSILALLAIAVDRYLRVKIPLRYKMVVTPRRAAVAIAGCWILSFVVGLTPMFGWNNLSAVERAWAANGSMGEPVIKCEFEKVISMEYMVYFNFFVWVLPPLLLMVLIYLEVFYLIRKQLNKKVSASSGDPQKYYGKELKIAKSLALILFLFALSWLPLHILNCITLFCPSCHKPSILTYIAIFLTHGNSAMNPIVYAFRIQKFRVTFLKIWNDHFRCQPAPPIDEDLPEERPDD
Description: Measurement of the ability to bind to adenosine A1 receptor (3H-CCPA binding inhibition). Conditions: membrane of CHOK1 cells expressing human A1 receptor, Cheng-Prusoff. As to the method:
Measurement of the Ability to Bind to Adenosine A1 Receptor
A human adenosine A1 receptor cDNA was expressed in excess in CHOK1 cells, and this membrane sample was added at a protein concentration of 66.7 μg/ml to, and suspended in, 20 mM HEPES buffer, pH 7.4 (10 mM MgCl2, 100 mM NaCl). To 0.45 ml of this membrane sample suspension were added 0.025 ml of 60 nM tritium-labeled chlorocyclopentyl adenosine (^3H—CCPA, from NEN Ltd.) and 0.025 ml test compound. This mixture was left at 30° C. for 120 minutes, filtered rapidly under suction through a glass fiber filter (GF/B, from Whatman), and immediately washed twice with 5 ml of 50 mM water-cooled Tris-HCl buffer. Thereafter, the glass fiber filter was transferred to a vial, a scintillator was added thereto, and the radioactivity on the filter was measured by a liquid scintillation counter. The inhibition of binding of ^3H—CCPA to A1 receptor by the test compound was determined using the following formula, and from this inhibition, 50% inhibition concentration (IC50) was calculated (the following equation).
Inhibition (%)=[1−{binding in the presence of the test compound-non-specific binding)/(total binding-non-specific binding)}]×100
In the above formula, the total binding means ^3H—CCPA-bound radioactivity in the absence of the test compound; the non-specific binding means ^3H—CCPA-bound radioactivity in the presence of 100 μM RPIA ([R]-[1-methyl-2-phenylethyl] adenosine); and the binding in the presence of the test compound means ^3H—CCPA-bound radioactivity in the presence of the test compound at predetermined concentrations. The inhibition constant (Ki value) in the table was determined from the formula of Cheng-Prusoff.

Another assay concerns the target T2, adenosine A2a receptor (Homo sapiens, UniProt P29274).
T2 construct: purchased Receptor Biology Inc
Nature of the assay: Measurement of the ability to bind to adenosine A2a receptor (3H-CGS21680 binding inhibition). Conditions: A2a receptor membrane sample, 3H-CGS21680, Cheng-Prusoff. The method, then: Measurement of the Ability to Bind to Adenosine A2a Receptor
An experiment of inhibition of binding to adenosine A2a receptor was conducted using a membrane sample (Receptor Biology Inc.) where an adenosine A2a receptor cDNA was expressed in excess. This membrane sample was added at a protein concentration of 22.2 μg/ml to, and suspended in, 20 mM HEPES buffer, pH 7.4 (10 mM MgCl2 and 100 mM NaCl). To 0.45 ml of this membrane sample suspension were added 0.025 ml of 500 nM tritium-labeled 2-p-[2-carboxyethyl]phenetylamino-5′-N-ethylarboxyamide adenosine (^3H—CGS21680, from NEN) and 0.025 ml test compound. This mixture was left at 25° C. for 90 minutes, filtered rapidly under suction through a glass fiber filter (GF/B, from Whatman), and immediately washed twice with 5 ml of 50 mM water-cooled Tris-HCl buffer. Thereafter, the glass fiber filter was transferred to a vial, a scintillator was added thereto, and the radioactivity on the filter was measured by a liquid scintillation counter. The inhibition of binding of ^3H—CGS21680 to A2a receptor by the test compound was determined using the following formula, and from this inhibition, 50% inhibition concentration (IC50) was calculated.
Inhibition (%)=[1−{binding in the presence of the test compound-nonspecific binding)/(total binding-nonspecific binding)}]×100
Here, the total binding means ^3H—CGS21680-bound radioactivity in the absence of the test compound; the nonspecific binding means ^3H—CGS21680-bound radioactivity in the presence of 100 μM RPIA; and the binding in the presence of the test compound means ^3H—CGS21680-bound radioactivity in the […] of the test compound at predetermined concentrations. The inhibition constant (Ki value) in the table was determined from the formula of Cheng-Prusoff.

In assay [2] the target is T3, human adenosine A2b receptor (Homo sapiens, UniProt P29275).
T3 construct: expressed in transfected cells; host or cells: CHOK1 cells
T3 sequence (P29275 1-332): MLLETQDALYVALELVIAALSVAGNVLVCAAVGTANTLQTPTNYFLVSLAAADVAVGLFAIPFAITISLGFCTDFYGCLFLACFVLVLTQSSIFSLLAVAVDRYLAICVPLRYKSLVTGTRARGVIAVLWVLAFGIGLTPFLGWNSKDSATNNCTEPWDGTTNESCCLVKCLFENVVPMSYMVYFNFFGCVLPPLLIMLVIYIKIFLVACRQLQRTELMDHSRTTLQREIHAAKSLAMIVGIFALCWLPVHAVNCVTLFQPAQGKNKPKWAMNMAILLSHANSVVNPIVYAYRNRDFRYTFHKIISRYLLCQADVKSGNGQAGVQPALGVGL
Nature of the assay: Inhibition of NECA-stimulated production of cAMP in adenosine A2b receptor-expressing cells. The format is cell-based. Conditions: CHOK1 cells expressing human A2b receptor, 30 nM NECA. The method, then: Experiment of Inhibition of NECA-stimulated Production of cAMP in Adenosine A2b Receptor-expressing Cells
CHOK1 cells where a human adenosine A2b receptor had been expressed in excess were plated onto a 24-well plate at a density of 1.5×10^5 cells/well, cultured overnight, and used in the experiment. The degree of inhibitory effect of the test compound on the amount of cAMP produced by stimulation with 30 nM 5′-N-ethylcarboxyamide adenosine (NECA from Sigma) was evaluated in terms of affinity for A2b receptor. That is, the adhering cells were washed twice with 2 ml/well Krebs-Ringer buffer solution (containing 0.1% BSA; pH 7.4) and pre-incubated for 30 minutes in a volume of 0.5 ml/well. Then, a mixed solution containing NECA and the test compound was added in a volume of 0.1 ml/well in the presence of a phosphodiesterase inhibitor Ro-20-1724 (a product of RBI). After pre-incubation for 15 minutes, the reaction was terminated with 0.1 N HCl in a volume of 300 μl/well. Measurement of intracellular cAMP was carried out using a cAMP enzyme immunoassay kit produced by Amersham. The inhibition of NECA-stimulated production of cAMP by the test compound was determined using the following equation:
Inhibition (%)=[1−{(amount of cAMP in the coexistence of NECA and the test compound-amount of CAMP in only the Krebs-Ringer buffer solution)/(amount of CAMP upon stimulation with NECA only-amount of cAMP in only the Krebs-Ringer buffer solution)}]×100

A further assay deals with SD IGS rats. Nature of the assay: Evaluation of defecation-promoting action. Format: in vivo, rat. Conditions: oral, 90 minutes after administration, per cage. From the text: Evaluation of Defecation-Promoting Action
The defecation-promoting action of the adenosine A2b receptor-inhibiting compound which was identified by measuring the binding ability and inhibitory ability thereof to the adenosine receptor in Test Example 1, a salt thereof, a hydrate of them, or a pharmaceutical composition containing it can be evaluated on the basis of the following method. That is, SD IGS rats (6 weeks-old, from Charles River) were placed in cages (3 animals/cage) and preliminarily allowed food and water ad libitum and raised for 1 week. Then, a tared water-absorbing sheet was placed below each cage, and the animals were fasted but allowed water ad libitum throughout the experiment. After 1.5 hours, the fecal pellets were recovered from each cage and observed for abnormality before the experiment. The compound suspended or dissolved in 0.5% (w/v) methyl cellulose (MC) was orally administered in a dose of 5 ml/kg. On one hand, 0.5% (w/v) MC only was orally given to the control group. After administration of the compound, the rats were returned to the cage provided with a new water-absorbing sheet, and 90 minutes after the administration, the fecal pellets on the water-absorbing sheet were recovered from each cage, and the external appearance was observed, and then counted and weighed. The number of fecal pellets is expressed per each cage. After the fecal pellets were recovered, the water-absorbing sheet was weighed, and the weight determined by subtracting the initial weight of the water-adsorbing sheet from the weight after the experiment was regarded as the volume of urine.

T2 sequence (P29274 whole entry): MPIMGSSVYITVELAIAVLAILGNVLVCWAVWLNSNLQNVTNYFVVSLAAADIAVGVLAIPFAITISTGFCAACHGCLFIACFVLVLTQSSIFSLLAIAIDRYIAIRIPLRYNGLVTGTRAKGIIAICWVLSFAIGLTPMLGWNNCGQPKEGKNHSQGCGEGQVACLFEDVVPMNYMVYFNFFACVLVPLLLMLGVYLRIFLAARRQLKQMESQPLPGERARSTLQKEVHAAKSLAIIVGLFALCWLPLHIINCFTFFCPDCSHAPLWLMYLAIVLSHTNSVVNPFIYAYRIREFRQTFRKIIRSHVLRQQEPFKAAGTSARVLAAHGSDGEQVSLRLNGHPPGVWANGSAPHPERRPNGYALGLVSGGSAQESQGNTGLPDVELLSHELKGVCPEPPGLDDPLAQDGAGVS

Take “2-Amino-6-(fluorophenyl)-5-(4-pyridyl)-3-pyridinecarbonitrile [Example 2]”: the Ki is 66 nM in assay [1] and 22 nM on adenosine A2a receptor. The same compound gave a concentration for half-maximal inhibition (IC50) in assay [2] of 3.7 nM. Further, the “The number of fecal pellets” value with SD IGS rats (1 mg/kg) was determined as 7.80 ± 0.20; in the assay with SD IGS rats (10 mg/kg), 18.00 ± 1.30.

`N#Cc1cc(-c2ccncc2)c(-c2ccco2)nc1N` [Example 1, 2-Amino-6-(2-furyl)-5-(4-pyridyl)-3-pyridinecarbonitrile]: the Ki in assay [1] came to 990 nM; on adenosine A2a receptor, 23 nM. For the same compound, in assay [2], the IC50 came to 2.7 nM. Moreover, the “The number of fecal pellets” value is reported as 1.75 ± 1.03 in the assay with SD IGS rats (1 mg/kg), 7.25 ± 1.65 in the assay on SD IGS rats (3 mg/kg) and 22.25 ± 2.93 in the assay on SD IGS rats (10 mg/kg).

In the case of `CCn1cc(-c2cc(C#N)c(N)nc2-c2ccco2)ccc1=O` [Example 5, 2-Amino-5-(1-ethyl-6-oxo-1,6-dihydro-3-pyridinyl)-6-(2-furyl)nicotinonitrile], the Ki in assay [1] stood at 400 nM; at adenosine A2a receptor, 7 nM. Moreover, the IC50 in assay [2] worked out at 6.5 nM. Also, the entries for the “The number of fecal pellets” value in the assay on SD IGS rats (1 mg/kg) and in the assay with SD IGS rats (3 mg/kg) were 7.00 ± 1.23 and 14.25 ± 3.38, respectively.
